Experimental data published in US20250270213A1, “PI3Ka INHIBITORS” (Synnovation Therapeutics, Inc., priority 2022, published 2025).

tested on: T47D (PIK3CA H1047R) cells; assay: pS473 AKT assay with 2.5% FBS, T47D cells; type: cell-based; settings: Homo sapiens, pSer473 AKT, DMEM with 2.5% FBS, 2 h treatment, read-out: T47D_IC50
Procedure: Example B. pS473 AKT Assay Protocol with 2.5% FBS
T47D (PIK3CA H1047R) cells were cultured using 10-cm petri dishes with recommended medium plus 10% fetal bovine serum. One day before the assay, cells were seeded in 96-well plates. After overnight incubation, the medium was changed to DMEM with 2.5% fetal bovine serum (FBS) and the cells were treated with different concentrations of the compounds for 2 h. Cells were then fixed using 4% paraformaldehyde at room temperature for 20 min. Aspirate 4% paraformaldehyde, and wash cells using 1× regular phosphate buffered saline 3 times, 5 min each. Aspirate any residual phosphate buffered saline and block cells using 10% goat serum containing 1% bovine serum albumin and 0.3% Triton X-100 at room temperature for 1 h. Without any additional washing, primary antibodies (rabbit anti-pSer473 AKT) were diluted using blocking buffer and added at a final volume of 50 microliter per well. Keep assay plates with primary antibodies overnight at 4° C. Wash cells using 1× regular phosphate buffered saline 3 times, 5 min each. After the final wash, incubate cells with horseradish peroxidase-conjugated secondary antibodies (goat Anti-rabbit IgG) diluted using the same blocking buffer at room temperature for 1 h. Wash cells thoroughly using 1× regular phosphate buffered saline 3 times, 5 min each. Aspirate any residual phosphate buffered saline. Add Super-Signal ELISA Pico Chemiluminescent Substrate at a final volume of 100 microliter per well. Read plates on i3x Multi-Mode Microplate Reader and calculate IC50 values using GraphPad Prism software.

IC50, < 1000 nM:
CCn1ncc2c3c(C(C)Nc4ccc(Cl)nc4-c4ccnn4C)cc(C)cc3c(=O)n(C)c21 (stereo not drawn) [Compound 48, 9-(1-((6-chloro-2-(1-methyl-1H-pyrazol-5-yl)pyridin-3-yl)amino)ethyl)-3-ethyl-4,7-dimethyl-3,4-dihydro-5H-pyrazolo[3,4-c]isoquinolin-5-one]
Cc1cc(C(C)Nc2ccc(Cl)nc2-c2ncn(C)n2)c2c(c1)c(=O)n(C)c1c(-c3cccnc3C)ncn21 (stereo not drawn) [Compound 113, 9-(1-((6-chloro-2-(1-methyl-1H-1,2,4-triazol-3-yl)pyridin-3-yl)amino)ethyl)-4,7-dimethyl-3-(2-methylpyridin-3-yl)imidazo[1,5-a]quinazolin-5(4H)-one]
CCn1cc(-c2nc(Cl)ccc2NC(C)c2cc(C)cc3c(=O)n(C)c4c(cnn4C4CCN(C)CC4)c23)cn1 (stereo not drawn) [Compound 160, 9-[1-[[6-chloro-2-(1-ethylpyrazol-4-yl)-3-pyridyl]amino]ethyl]-4,7-dimethyl-3-(1-methyl-4-piperidyl)pyrazolo[3,4-c]isoquinolin-5-one]
CCn1ncc2c3c(C(C)Nc4cccnc4-c4nnn[nH]4)cc(C)cc3c(=O)n(C)c21 (stereo not drawn) [Compound 72, 9-(1-((2-(1H-Tetrazol-5-yl)pyridin-3-yl)amino)ethyl)-3-ethyl-4,7-dimethyl-3,4-dihydro-5H-pyrazolo[3,4-c]isoquinolin-5-one]
CNC(=O)c1ccc(-c2nc(Cl)ccc2OC(C)c2cc(C)cc3c(=O)n(C)c4c(cnn4C4CCN(C)CC4)c23)cn1 (stereo not drawn) [Example 282, 5-[6-Chloro-3-[1-[4,7-dimethyl-3-(1-methyl-4-piperidyl)-5-oxo-pyrazolo[3,4-c]isoquinolin-9-yl]ethoxy]-2-pyridyl]-N-methyl-pyridine-2-carboxamide]
Cc1cc(C(C)Nc2ccc(Cl)nc2N2CCOCC2)c2c(c1)c(=O)n(C)c1c(C(=O)N(C)C)ncn21 (stereo not drawn) [Compound 127, 9-(1-((6-chloro-2-morpholinopyridin-3-yl)amino)ethyl)-N,N,4,7-tetramethyl-5-oxo-4,5-dihydroimidazo[1,5-a]quinazoline-3-carboxamide]
CC(=O)N1CCN(c2nc(Cl)ccc2NC(C)c2cc(C)cc3c(=O)n4c5c(cnn5CCC4)c23)CC1 (stereo not drawn) [Compound 293, 10-(1-((2-(4-acetylpiprerazin-1-yl)-6-chloropyridin-3-yl)amino)ethyl)-8-methyl-4,5-dihydro-3H,6H-2,2a,5a-triazaaceanthrylen-6-one]
Cc1cc(C(C)Nc2ccc(Cl)nc2-c2ncn(C)n2)c2c(c1)c(=O)n(C)c1c2cnn1C1CN(S(C)(=O)=O)C1 (stereo not drawn) [Compound 99, 9-(1-((6-chloro-2-(1-methyl-1H-1,2,4-triazol-3-yl)pyridin-3-yl)amino)ethyl)-4,7-dimethyl-3-(1-(methylsulfonyl)azetidin-3-yl)-3,4-dihydro-5H-pyrazolo[3,4-c]isoquinolin-5-one]
Cc1cc(C(C)Nc2ccc(Cl)nc2-c2ccc(C#N)cc2F)c2c(c1)c(=O)n(C)c1c(C(=O)N(C)C)ncn21 (stereo not drawn) [Compound 125, 9-(1-((6-chloro-2-(4-cyano-2-fluorophenyl)pyridin-3-yl)amino)ethyl)-N,N,4,7-tetramethyl-5-oxo-4,5-dihydroimidazo[1,5-a]quinazoline-3-carboxamide]
[2H]C([2H])([2H])n1c(=O)c2cc(C)cc(C(C)Nc3ccc(Cl)nc3-c3noc(=O)[nH]3)c2c2cnn([C@H]3CCOC3)c21 (stereo partly drawn) [Example 213, 3-[6-Chloro-3-[1-[7-methyl-5-oxo-3-[(3S)-tetrahydrofuran-3-yl]-4-(trideuteriomethyl)pyrazolo[3,4-c]isoquinolin-9-yl]ethylamino]-2-pyridyl]-4H-1,2,4-oxadiazol-5-one]
Cc1cc(C(C)Nc2ccc(Cl)nc2-c2cnn(C3CCCN(C)C3)c2)c2c(c1)c(=O)n1c3c2cnn3CCC1 (stereo not drawn) [Compound 302]
CCn1ncc2c3c(C(C)Nc4ccc(Cl)nc4-c4noc(=O)[nH]4)cc(Cl)cc3c(=O)n(C)c21 (stereo not drawn) [Compound 63, 3-(6-Chloro-3-((1-(7-chloro-3-ethyl-4-methyl-5-oxo-4,5-dihydro-3H-pyrazolo[3,4-c]isoquinolin-9-yl)ethyl)amino)pyridin-2-yl)-1,2,4-oxadiazol-5(4H)-one]
CC(=O)N1CCC(n2cc3c4c(C(C)Nc5ccc(Cl)nc5-c5cnn(C)c5)cc(C)cc4c(=O)n(C)c3n2)CC1 (stereo not drawn) [Example 209, 2-(1-Acetylpiperidin-4-yl)-9-(1-((6-chloro-2-(1-methyl-1H-pyrazol-4-yl)pyridin-3-yl)amino)ethyl)-4,7-dimethyl-2,4-dihydro-5H-pyrazolo[3,4-c]isoquinolin-5-one]
CCn1c(=O)c2cc(C)cc(C(C)Nc3ccc(Cl)nc3-c3ncn(C)n3)c2c2cn(C3CCN(C(C)=O)CC3)nc21 (stereo not drawn) [Example 202, 2-(1-Acetylpiperidin-4-yl)-9-(1-((6-chloro-2-(1-methyl-1H-1,2,4-triazol-3-yl)pyridin-3-yl)amino)ethyl)-4-ethyl-7-methyl-2,4-dihydro-5H-pyrazolo[3,4-c]isoquinolin-5-one]
COCCn1ncc2c3c(C(C)Nc4ccc(Cl)nc4-c4noc(=O)[nH]4)cc(C)cc3c(=O)n(C)c21 (stereo not drawn) [Compound 67, 3-(6-Chloro-3-((1-(3-(2-methoxyethyl)-4,7-dimethyl-5-oxo-4,5-dihydro-3H-pyrazolo[3,4-c]isoquinolin-9-yl)ethyl)amino)pyridin-2-yl)-1,2,4-oxadiazol-5(4H)-one]
Cc1cc(C(C)Nc2ccc(Cl)nc2-c2cnn(C)c2)c2c(c1)c(=O)n(C)c1c2cnn1C1CCN(C)CC1 (stereo not drawn) [Compound 158, 9-(1-((6-Chloro-2-(1-methyl-1H-pyrazol-4-yl)pyridin-3-yl)amino)ethyl)-4,7-dimethyl-3-(1-methylpiperidin-4-yl)-3,4-dihydro-5H-pyrazolo[3,4-c]isoquinolin-5-one]
Cc1cc(C(C)Nc2ccc(Cl)nc2-c2ncn(C)n2)c2c(c1)c(=O)n(C)c1c2cnn1C1CCN(S(C)(=O)=O)CC1 (stereo not drawn) [Example 190, 9-(1-((6-chloro-2-(1-methyl-1H-1,2,4-triazol-3-yl)pyridin-3-yl)amino)ethyl)-4,7-dimethyl-3-(1-(methylsulfonyl)piperidin-4-yl)-3,4-dihydro-5H-pyrazolo[3,4-c]isoquinolin-5-one]
CNC(=O)c1ccc(-c2nc(C)ccc2NC(C)c2cc(C)cc3c(=O)n4c5c(cnn5CCC4)c23)cc1F (stereo not drawn) [Compound 317, 2-fluoro-N-methyl-4-(6-methyl-3-((1-(8-methyl-6-oxo-4,5-dihydro-3H,6H-2,2a,5a-triazaaceanthrylen-10-yl)ethyl)amino)pyridin-2-yl)benzamide]
CCn1c(=O)c2cc(C)cc(C(C)Nc3ccc(Cl)nc3-c3ncn(C)n3)c2c2cnn(C3CCN(CCO)C3)c21 (stereo not drawn) [Compound 145, 9-(1-((6-Chloro-2-(1-methyl-1H-1,2,4-triazol-3-yl)pyridin-3-yl)amino)ethyl)-4-ethyl-3-(1-(2-hydroxyethyl)pyrrolidin-3-yl)-7-methyl-3,4-dihydro-5H-pyrazolo[3,4-c]isoquinolin-5-one]
CCc1nn2c3c4c(cc(C)cc4c(=O)n(C)c13)C(Nc1ccc(C)nc1-c1ccncc1)C2 (stereo not drawn) [Compound 40, 2-Ethyl-3,6-dimethyl-8-((6-methyl-[2,4′-bipyridin]-3-yl)amino)-8,9-dihydrobenzo[de]pyrazolo[4,5,1-ij][1,7]naphthyridin-4(3H)-one]
Cc1cc(C(C)Nc2ccc(Cl)nc2-c2ccc3c(c2)CN(C)C3=O)c2c(c1)c(=O)n1c3c2cnn3CCC1 (stereo not drawn) [Compound 314, 10-(1-((6-chloro-2-(2-methyl-1-oxoisoindolin-5-yl)pyridin-3-yl)amino)ethyl)-8-methyl-4,5-dihydro-3H,6H-2,2a,5a-triazaaceanthrylen-6-one]
Cc1cc(C(C)Nc2ccc(Cl)nc2-c2ncn(C)n2)c2c(c1)c(=O)n(C)c1c2cnn1C1CCN(CC(F)F)CC1 (stereo not drawn) [Compound 181, 9-(1-((6-Chloro-2-(1-methyl-1H-1,2,4-triazol-3-yl)pyridin-3-yl)amino)ethyl)-3-(1-(2,2-difluoroethyl)piperidin-4-yl)-4,7-dimethyl-3,4-dihydro-5H-pyrazolo[3,4-c]isoquinolin-5-one]
Cc1cc(C(C)Nc2ccc(Cl)nc2-c2ncn(C)n2)c2c(c1)c(=O)n(C)c1c2cnn1C1CN(C(=O)CO)C1 (stereo not drawn) [Compound 103, 9-(1-((6-Chloro-2-(1-methyl-1H-1,2,4-triazol-3-yl)pyridin-3-yl)amino)ethyl)-3-(1-(2-hydroxyacetyl)azetidin-3-yl)-4,7-dimethyl-3,4-dihydro-5H-pyrazolo[3,4-c]isoquinolin-5-one]

same assay, conditions: pSer473 AKT, DMEM with 2.5% FBS, 2 h treatment, read-out: T47D_IC50

IC50, < 1000 nM:
CCn1ncc2c3c(C(C)Nc4ccc(Cl)nc4-c4ccc(C(=O)O)cc4)cc(C)cc3c(=O)n(C)c21 (stereo not drawn) [Example 232, 4-(6-chloro-3-((1-(3-ethyl-4,7-dimethyl-5-oxo-4,5-dihydro-3H-pyrazolo[3,4-c]isoquinolin-9-yl)ethyl)amino)pyridin-2-yl)benzoic acid]
